From patent US8552002B2 (Novartis AG, priority 2004, dated 2013)

Assays:
Assay type in all cases: biochemical
Tek = target: T1, Tek (Homo sapiens, UniProt Q02763); test: Recombinant GST-Tek (Tie-2) tyrosine kinase assay (33P into poly(Glu,Tyr)); conditions: Examples 1 to 169
T1 construct: amino acids 773-1124 of the cytoplasmic kinase domain of human Tek, N-terminally fused to GST; made in house; host or cells: Sf9 insect cells (baculovirus)
From the text: (Tie-2/Tek): The baculovirus donor vector pFbacG01 was used to generate a recombinant baculovirus that expressed the amino acid region amino acids 773-1124 of the cytoplasmic kinase domain of human Tek, N-terminally fused to GST (Provided by Dr. Marmé, Institute of Molecular Medicine, Freiburg, Germany based on a Research Collaboration). Tek was recloned into the pFbacG01 transfer vector by EcoRI excision and ligation into EcoRI digested pFbacG01 (FBG-Tie2/Tek).
Production of virus: Transfer vectors containing the kinase domains were transfected into the DH10Bac cell line (GIBCO) and plated on selective agar plates. Colonies without insertion of the fusion sequence into the viral genome (carried by the bacteria) are blue. Single white colonies were picked and viral DNA (bacmid) isolated from the bacteria by standard plasmid purification procedures. Sf9 cells or Sf21 cells were then transfected in 25 cm^2 flasks with the viral DNA using Cellfectin reagent.
Determination of small scale protein expression in Sf9 cells: Virus containing media was collected from the transfected cell culture and used for infection to increase its titer. Virus containing media obtained after two rounds of infection was used for large-scale protein expression. For large-scale protein expression 100 cm^2 round tissue culture plates were seeded with 5×10^7 cells/plate and infected with 1 mL of virus-containing media (approx. 5 MOIs). After 3 days the cells were scraped off the plate and centrifuged at 500 rpm for 5 min. Cell pellets from 10-20, 100 cm^2 plates, were resuspended in 50 mL of ice-cold lysis buffer (25 mMTris-HCl, pH7.5, 2 mMEDTA, 1% NP-40, 1 mM DTT, 1 mMP MSF). The cells were stirred on ice for 15 min and then centrifuged at 5000 rpms for 20 min.
Purification of GST-tagged proteins: The centrifuged cell lysate was loaded onto a 2 mL glutathione-sepharose column and washed three times with 10 mL of 25 mM Tris-HCl, pH 7.5, 2 mM EDTA, 1 mM DTT, 200 mM NaCl. The GST-tagged proteins were then eluted by 10 applications (1 mL each) of 25 mM Tris-HCl, pH 7.5, 10 mM reduced-glutathione, 100 mM NaCl, 1 mM DTT, 10% Glycerol and stored at −70° C.
Measure of enzyme activity: Tyrosine protein kinase assays with either purified GST-Ret, GST-Tek or GST-FGFR-3-K650E were carried out in a final volume of 30 μL with final concentrations of the following components: Ret included 15 ng of GST-Ret, 20 mM Tris-HCl, pH 7.5, 1 mM MnCl2, 10 mM MgCl2, 1 mM DTT, 3 μg/mL poly(Glu,Tyr) 4:1, 1% DMSO and 2.0 μM ATP (γ-[^33P]-ATP 0.1 μCi). Tek included 150 ng of GST-Tek, 20 mM Tris-HCl, pH 7.5, 3 mM MnCl2, 3 mM MgCl2, 1 mM DTT, 0.01 mM Na3VO4, 250 μg/mL PEG 20'000, 10 μg/mL poly(Glu,Tyr) 4:1, 1% DMSO and 4.0 μM ATP (γ-[^33P]-ATP 0.1 μCi). FGFR-3-K650E included 10 ng of GST-FGFR-3-K650E, 20 mM Tris-HCl, pH 7.5, 3 mM MnCl2, 3 mM MgCl2, 1 mM DTT, […], 10 μg/mL poly(Glu,Tyr) 4:1, 1% DMSO and 4.0 μM ATP (γ-[^33P]-ATP 0.1 μCi).The activity was assayed in the presence or absence of inhibitors, by measuring the incorporation of ^33P from [γ^33P] ATP into poly(Glu,Tyr) 4:1. The assay was carried out in 96-well plates at ambient temperature for 30 min under conditions described below and terminated by the addition of 50 μL of 125 mM EDTA. Subsequently, 60 μL of the reaction mixture were transferred onto Immobilon-PVDF membrane (Millipore) previously soaked for 5 min with methanol, rinsed with water, then soaked for 5 min with 0.5% H3PO4 and mounted on vacuum manifold with disconnected vacuum source. After spotting all samples, vacuum was connected and each well rinsed with 200 μL 0.5% H3PO4. Membranes were removed and washed 4× on a shaker with 1.0% H3PO4, once with ethanol. Membranes were counted after drying at ambient temperature, mounting in Packard TopCount 96-well frame, and addition of 10 μL/well of Microscint™ (Packard). […]

FGFR3 (K650E) = target: T2, FGFR3 (K650E) (Homo sapiens, UniProt P22607, K650E); test: Recombinant GST-FGFR-3-K650E tyrosine kinase assay (33P into poly(Glu,Tyr)); conditions: 10 μM; Examples 1 to 169; read-out: FGFR3 (K650E) inhibition at 10 μM
T2 construct: amino acids 411-806 of the cytoplasmic domain of human FGFR-3, N-terminally fused to GST; made in house; host or cells: Sf9 insect cells (baculovirus)
T2 sequence (P22607 411-806 K650E): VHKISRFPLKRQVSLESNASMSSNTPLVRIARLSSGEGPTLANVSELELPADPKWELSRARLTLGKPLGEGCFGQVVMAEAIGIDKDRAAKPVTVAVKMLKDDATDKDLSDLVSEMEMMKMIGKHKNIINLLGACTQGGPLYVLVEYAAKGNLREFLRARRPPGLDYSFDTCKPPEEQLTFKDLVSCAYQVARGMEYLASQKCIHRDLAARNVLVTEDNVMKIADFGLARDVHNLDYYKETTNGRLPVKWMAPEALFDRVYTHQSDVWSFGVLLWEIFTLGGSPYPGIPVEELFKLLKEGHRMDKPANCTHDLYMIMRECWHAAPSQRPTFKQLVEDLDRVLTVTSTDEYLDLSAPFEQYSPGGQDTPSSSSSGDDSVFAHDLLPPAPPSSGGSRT

KDR = target: T3, KDR (Homo sapiens, UniProt P35968); test: Inhibitory activity against KDR (VEGF-R2), in vitro data of Examples 170 and 207; conditions: 10 μM; Examples 1 to 169; read-out: KDR inhibition at 10 μM
T3 construct: expressed in transfected cells; host or cells: CHO cells
T3 sequence (P35968 20-1356): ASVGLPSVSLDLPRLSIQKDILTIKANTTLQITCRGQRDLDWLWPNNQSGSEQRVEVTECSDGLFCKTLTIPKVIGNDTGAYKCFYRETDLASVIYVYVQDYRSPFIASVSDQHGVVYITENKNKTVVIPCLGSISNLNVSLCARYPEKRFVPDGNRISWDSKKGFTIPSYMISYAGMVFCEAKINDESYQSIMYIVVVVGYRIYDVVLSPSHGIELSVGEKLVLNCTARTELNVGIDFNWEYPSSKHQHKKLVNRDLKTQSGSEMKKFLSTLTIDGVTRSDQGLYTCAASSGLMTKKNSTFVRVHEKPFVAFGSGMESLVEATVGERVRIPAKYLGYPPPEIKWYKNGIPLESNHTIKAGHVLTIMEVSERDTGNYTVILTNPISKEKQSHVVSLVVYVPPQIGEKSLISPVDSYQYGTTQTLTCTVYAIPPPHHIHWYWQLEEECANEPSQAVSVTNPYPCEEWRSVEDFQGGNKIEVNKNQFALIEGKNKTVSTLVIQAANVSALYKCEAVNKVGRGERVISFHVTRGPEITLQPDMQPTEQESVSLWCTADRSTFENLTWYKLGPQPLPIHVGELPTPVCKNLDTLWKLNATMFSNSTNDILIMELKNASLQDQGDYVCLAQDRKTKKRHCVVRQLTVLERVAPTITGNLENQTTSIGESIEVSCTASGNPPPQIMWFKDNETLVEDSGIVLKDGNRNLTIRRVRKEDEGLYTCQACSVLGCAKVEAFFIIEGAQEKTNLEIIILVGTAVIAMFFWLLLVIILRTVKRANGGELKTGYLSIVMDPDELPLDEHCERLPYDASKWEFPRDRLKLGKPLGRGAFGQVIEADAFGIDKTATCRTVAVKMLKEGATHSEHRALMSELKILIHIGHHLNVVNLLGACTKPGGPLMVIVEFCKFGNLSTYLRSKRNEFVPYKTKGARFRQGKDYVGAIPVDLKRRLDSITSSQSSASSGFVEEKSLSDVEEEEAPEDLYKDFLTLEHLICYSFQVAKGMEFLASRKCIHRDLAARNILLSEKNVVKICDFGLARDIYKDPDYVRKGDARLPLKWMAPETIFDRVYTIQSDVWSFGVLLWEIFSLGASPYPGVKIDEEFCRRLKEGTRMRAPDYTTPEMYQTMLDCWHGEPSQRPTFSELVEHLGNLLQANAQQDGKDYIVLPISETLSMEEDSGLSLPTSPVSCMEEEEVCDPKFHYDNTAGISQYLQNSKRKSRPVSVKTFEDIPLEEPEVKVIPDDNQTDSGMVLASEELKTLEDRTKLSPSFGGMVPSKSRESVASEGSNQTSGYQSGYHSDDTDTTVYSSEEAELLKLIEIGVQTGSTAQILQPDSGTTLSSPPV
Method: (Controls comprise medium without test compounds). After two hours of incubation at 37° C., recombinant VEGF is added; the final VEGF concentration is 20 ng/ml. After a further five minutes incubation at 37° C., the cells are washed twice with ice-cold PBS (phosphate-buffered saline) and immediately lysed in 100 μl lysis buffer per well. The lysates are then centrifuged to remove the cell nuclei, and the protein concentrations of the supernatants are determined using a commercial protein assay (BIORAD). The lysates can then either be immediately used or, if necessary, stored at −20° C. […] The plates are then washed and the remaining free protein-binding sites are saturated with 3% TopBlock® (Juro, Cat. # TB232010) in phosphate buffered saline with Tween 20® (polyoxyethylen(20)sorbitane monolaurate, ICI/Uniquema) (PBST). The cell lysates (20 μg protein per well) are then incubated in these plates overnight at 4° C. together with an antiphosphotyrosine antibody coupled with alkaline phosphatase (PY20:AP from Zymed). […] The luminescence is measured in a Packard Top Count Microplate Scintillation Counter.

T1 sequence (Q02763 773-1124): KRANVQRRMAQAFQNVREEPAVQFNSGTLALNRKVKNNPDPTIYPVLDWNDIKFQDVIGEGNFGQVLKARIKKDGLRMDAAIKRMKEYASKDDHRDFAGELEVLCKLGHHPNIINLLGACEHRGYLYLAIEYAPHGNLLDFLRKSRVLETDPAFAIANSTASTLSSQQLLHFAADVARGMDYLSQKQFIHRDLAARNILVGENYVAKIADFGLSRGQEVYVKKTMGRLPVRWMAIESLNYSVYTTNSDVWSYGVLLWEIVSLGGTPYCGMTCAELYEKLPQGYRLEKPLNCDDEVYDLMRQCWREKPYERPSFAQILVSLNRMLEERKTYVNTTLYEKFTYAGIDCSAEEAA

Row | Compound | inhibition at 10 µM (Tek) [%] | inhibition at 10 µM (FGFR3 (K650E)) [%] | inhibition at 10 µM (KDR) [%]
1 | CN1CCN(c2ccc(Nc3cc(NC(=O)Nc4cc(Cl)cc(Cl)c4)ncn3)cc2)CC1 [Example 10, 1-(3,5-Dichloro-phenyl)-3-{6-[4-(4-methyl-piperazin-1-yl)-phenylamino]-pyrimidin-4-yl}-urea] | 12 to 100 | 27 to 100 | 67 to 100
2 | CCN(CC)CCCOc1ccc(Nc2cc(NC(=O)Nc3ccccc3Br)ncn2)cc1 [Example 104, 1-(2-Bromo-phenyl)-3-{6-[4-(3-diethylamino-propoxy)-phenylamino]-pyrimidin-4-yl}-urea] | 12 to 100 | 27 to 100 | 67 to 100
3 | COc1cc(NC(=O)N(C)c2cc(Nc3ccc(C(=O)N4CCN(C)CC4)cc3)ncn2)c(Cl)c(OC)c1 [Example 52, 3-(2-Chloro-3,5-dimethoxy-phenyl)-1-methyl-1-{6-[4-(4-methyl-piperazine-1-carbonyl)-phenylamino]-pyrimidin-4-yl}-urea] | 12 to 100 | 27 to 100 | 67 to 100
4 | COc1ccc(C)c(NC(=O)Nc2cc(Nc3cccc(Cl)c3)ncn2)c1 [Example 134, 1-[6-(3-Chloro-phenylamino)-pyrimidin-4-yl]-3-(5-methoxy-2-methyl-phenyl)-urea] | 12 to 100 | 27 to 100 | 67 to 100
5 | O=C(Nc1cc(Nc2cccc(Cl)c2)ncn1)Nc1ccccc1C(F)(F)F [Example 133, 1-[6-(3-Chloro-phenylamino)-pyrimidin-4-yl]-3-(2-trifluoromethyl-phenyl)-urea] | 12 to 100 | 27 to 100 | 67 to 100
6 | COc1cc(NC(=O)N(C)c2cc(Nc3cccc(N4CCN(C)CC4)c3)ncn2)cc(OC)c1 [Example 48, 3-(3,5-Dimethoxy-phenyl)-1-methyl-1-{6-[3-(4-methyl-piperazin-1-yl)-phenylamino]-pyrimidin-4-yl}-urea] | 12 to 100 | 27 to 100 | 67 to 100
7 | COc1ccc(OC)c(NC(=O)Nc2cc(Nc3ccc(N4CCN(C)CC4)cc3)ncn2)c1 [Example 12, 1-(2,5-Dimethoxy-phenyl)-3-{6-[4-(4-methyl-piperazin-1-yl)-phenyl-amino]-pyrimidin-4-yl}-urea] | 12 to 100 | 27 to 100 | 67 to 100
8 | COc1cc(OC)c(Cl)c(NC(=O)N(C)c2cc(Nc3cccc(CN(C)CCN(C)C)c3)ncn2)c1Cl [Example 162, 3-(2,6-Dichloro-3,5-dimethoxy-phenyl)-1-[6-(3-{[(2-dimethylamino-ethyl)-methyl-amino]-methyl}-phenylamino)-pyrimidin-4-yl]-1-methyl-urea] | 12 to 100 | 27 to 100 | 67 to 100
9 | CN(C(=O)Nc1c(Cl)cccc1Cl)c1cc(Nc2cccc(Cl)c2)ncn1 [Example 124, 1-[6-(3-Chloro-phenylamino)-pyrimidin-4-yl]-3-(2,6-dichloro-phenyl)-1-methyl-urea] | 12 to 100 | 27 to 100 | 67 to 100
10 | COc1ccc(C)c(NC(=O)Nc2cc(Nc3cccc(N4CCN(C)CC4)c3)ncn2)c1 [Example 27, 1-(5-Methoxy-2-methyl-phenyl)-3-{6-[3-(4-methyl-piperazin-1-yl)-phenyl-amino]-pyrimidin-4-yl}-urea] | 12 to 100 | 27 to 100 | 67 to 100
11 | COc1cc(C)c(NC(=O)Nc2cc(Nc3cccc(N4CCN(C)CC4)c3)ncn2)cc1OC [Example 35] | 12 to 100 | 27 to 100 | 67 to 100
12 | CCN(C(=O)Nc1c(Cl)c(OC)cc(OC)c1Cl)c1cc(Nc2ccc(C(=O)N3CCN(C)CC3)cc2)ncn1 [Example 64, 3-(2,6-Dichloro-3,5-dimethoxy-phenyl)-1-ethyl-1-{6-[4-(4-methyl-piperazine-1-carbonyl)-phenylamino]-pyrimidin-4-yl}-urea] | 12 to 100 | 27 to 100 | 67 to 100
13 | COc1cccc(NC(=O)Nc2cc(Nc3cccc(N4CCN(C)CC4)c3)ncn2)c1 [Example 9, 1-(3-Methoxy-phenyl)-3-{6-[3-(4-methyl-piperazin-1-yl)-phenylamino]-py-rimidin-4-yl}-urea] | 12 to 100 | 27 to 100 | 67 to 100
14 | Cc1cc(C)cc(NC(=O)Nc2cc(Nc3ccc(N4CCN(C)CC4)cc3)ncn2)c1 [Example 22, 1-(3,5-Dimethyl-phenyl)-3-{6-[4-(4-methyl-piperazin-1-yl)-phenyl-amino]-pyrimidin-4-yl}-urea] | 12 to 100 | 27 to 100 | 67 to 100
15 | CN(C)c1cccc(Nc2cc(NC(=O)Nc3c(Cl)cccc3Cl)ncn2)c1 [Example 119, 1-(2,6-Dichloro-phenyl)-3-[6-(3-dimethylamino-phenylamino)-pyrimidin-4-yl]-urea] | 12 to 100 | 27 to 100 | 67 to 100
16 | O=C(Nc1cc(Nc2ccc(OCCN3CCOCC3)cc2)ncn1)Nc1c(Cl)cccc1Cl [Example 96, 1-(2,6-Dichloro-phenyl)-3-{6-[4-(2-morpholin-4-yl-ethoxy)-phenylamino]-pyrimidin-4-yl}-urea] | 12 to 100 | 27 to 100 | 67 to 100
17 | COc1cc(NC(=O)Nc2cc(Nc3cccc(N4CCN(C)CC4)c3)ncn2)cc(OC)c1OC [Example 15, 1-{6-[3-(4-Methyl-piperazin-1-yl)-phenylamino]-pyrimidin-4-yl}-3-(3,4,5-trimethoxy-phenyl)-urea] | 12 to 100 | 27 to 100 | 67 to 100
18 | CCN(CC)CCOc1ccc(Nc2cc(NC(=O)Nc3cc(OC)cc(OC)c3Cl)ncn2)cc1 [Example 42, 1-(2-Chloro-3,5-dimethoxy-phenyl)-3-{6-[4-(2-diethylamino-ethoxy)-phenylamino]-pyrimidin-4-yl}-urea] | 12 to 100 | 27 to 100 | 67 to 100
